Source: PubChem BioAssay (NCI)
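Values below derive from 48-hour exposures of cells grown in 96-well plates, with endpoints linearly interpolated between the two concentrations bracketing the appropriate inhibition level. GI50 is the concentration that inhibits growth by half. At the TGI there is no net growth.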

Tests used:
Test in all cases: DTP human tumour cell line panel, 48 h
HL-60(TB) leukemia = test system: HL-60(TB) leukemia
CCRF-CEM leukemia = test system: CCRF-CEM leukemia
UACC-257 melanoma = test system: UACC-257 melanoma
A498 renal = test system: A498 renal
SK-OV-3 ovarian = test system: SK-OV-3 ovarian
OVCAR-8 ovarian = test system: OVCAR-8 ovarian
SK-MEL-2 melanoma = test system: SK-MEL-2 melanoma
OVCAR-5 ovarian = test system: OVCAR-5 ovarian
BT-549 breast = test system: BT-549 breast
HT29 colon = test system: HT29 colon
HOP-92 NSCLC = test system: HOP-92 NSCLC
HCC-2998 colon = test system: HCC-2998 colon
MDA-MB-231 breast = test system: MDA-MB-231 breast
NCI-H522 lung = test system: NCI-H522 lung
UO-31 renal = test system: UO-31 renal
SF-268 CNS = test system: SF-268 CNS
NCI-H226 lung = test system: NCI-H226 lung
SK-MEL-5 melanoma = test system: SK-MEL-5 melanoma
SN12C renal = test system: SN12C renal
RPMI-8226 leukemia = test system: RPMI-8226 leukemia
UACC-62 melanoma = test system: UACC-62 melanoma
MDA-MB-435 = test system: MDA-MB-435
CAKI-1 renal = test system: CAKI-1 renal
A549 NSCLC = test system: A549 NSCLC
OVCAR-3 ovarian = test system: OVCAR-3 ovarian
K-562 leukemia = test system: K-562 leukemia
T-47D breast = test system: T-47D breast
TK-10 renal = test system: TK-10 renal
HCT-116 colon = test system: HCT-116 colon
NCI/ADR-RES ovarian = test system: NCI/ADR-RES ovarian
LOX IMVI melanoma = test system: LOX IMVI melanoma
DU-145 prostate = test system: DU-145 prostate
SF-295 CNS = test system: SF-295 CNS
HCT-15 colon = test system: HCT-15 colon
SK-MEL-28 melanoma = test system: SK-MEL-28 melanoma
SF-539 CNS = test system: SF-539 CNS
NCI-H23 lung = test system: NCI-H23 lung
MCF7 breast = test system: MCF7 breast
ACHN renal = test system: ACHN renal
786-0 renal = test system: 786-0 renal
RXF 393 renal = test system: RXF 393 renal
PC-3 prostate = test system: PC-3 prostate
U251 CNS = test system: U251 CNS
IGROV1 ovarian = test system: IGROV1 ovarian
NCI-H460 lung = test system: NCI-H460 lung
HS 578T breast = test system: HS 578T breast
HOP-62 NSCLC = test system: HOP-62 NSCLC
COLO 205 colon = test system: COLO 205 colon
SW-620 colon = test system: SW-620 colon
SNB-75 CNS = test system: SNB-75 CNS
EKVX NSCLC = test system: EKVX NSCLC
SNB-19 CNS = test system: SNB-19 CNS
M14 melanoma = test system: M14 melanoma
KM12 colon = test system: KM12 colon

## CC1=C(C(=O)Nc2ccc(F)c(Cl)c2)C(c2cccc(O)c2)NC(=O)N1 (stereo not drawn)
HL-60(TB) leukemia
  GI50: 6.81 µM
  TGI: > 100 µM
CCRF-CEM leukemia
  GI50: 79.3 µM
  TGI: > 100 µM
UACC-257 melanoma
  GI50: 54.3 µM
  TGI: > 100 µM
A498 renal
  GI50: 5.04 µM
  TGI: > 100 µM
SK-OV-3 ovarian
  GI50: > 100 µM
  TGI: > 100 µM
OVCAR-8 ovarian
  GI50: 62.7 µM
  TGI: > 100 µM
SK-MEL-2 melanoma
  GI50: 29.5 µM
  TGI: > 100 µM
OVCAR-5 ovarian
  GI50: > 100 µM
  TGI: > 100 µM
BT-549 breast
  GI50: 67 µM
  TGI: > 100 µM
HT29 colon
  GI50: 81.6 µM
  TGI: > 100 µM
HOP-92 NSCLC
  GI50: 47.5 µM
  TGI: > 100 µM
HCC-2998 colon
  GI50: > 100 µM
  TGI: > 100 µM
MDA-MB-231 breast
  GI50: 46.2 µM
  TGI: > 100 µM
NCI-H522 lung
  GI50: 49 µM
  TGI: > 100 µM
UO-31 renal
  GI50: 71.4 µM
  TGI: > 100 µM
SF-268 CNS
  GI50: 98 µM
  TGI: > 100 µM
NCI-H226 lung
  GI50: 85.9 µM
  TGI: > 100 µM
SK-MEL-5 melanoma
  GI50: 45.1 µM
  TGI: > 100 µM
SN12C renal
  GI50: > 100 µM
  TGI: > 100 µM
RPMI-8226 leukemia
  GI50: 55.1 µM
  TGI: > 100 µM
UACC-62 melanoma
  GI50: 48.7 µM
  TGI: > 100 µM
MDA-MB-435
  GI50: 59.7 µM
  TGI: > 100 µM
CAKI-1 renal
  GI50: > 100 µM
  TGI: > 100 µM
A549 NSCLC
  GI50: > 100 µM
  TGI: > 100 µM
OVCAR-3 ovarian
  GI50: 71.8 µM
  TGI: > 100 µM
K-562 leukemia
  GI50: 73.5 µM
  TGI: > 100 µM
T-47D breast
  GI50: > 100 µM
  TGI: > 100 µM
TK-10 renal
  GI50: > 100 µM
  TGI: > 100 µM
HCT-116 colon
  GI50: 70.7 µM
  TGI: > 100 µM
NCI/ADR-RES ovarian
  GI50: > 100 µM
  TGI: > 100 µM
LOX IMVI melanoma
  GI50: > 100 µM
  TGI: > 100 µM
DU-145 prostate
  GI50: > 100 µM
  TGI: > 100 µM
SF-295 CNS
  GI50: > 100 µM
  TGI: > 100 µM
HCT-15 colon
  GI50: > 100 µM
  TGI: > 100 µM
SK-MEL-28 melanoma
  GI50: 58.9 µM
  TGI: > 100 µM
SF-539 CNS
  GI50: > 100 µM
  TGI: > 100 µM
NCI-H23 lung
  GI50: > 100 µM
  TGI: > 100 µM
MCF7 breast
  GI50: 58.8 µM
  TGI: > 100 µM
ACHN renal
  GI50: > 100 µM
  TGI: > 100 µM
786-0 renal
  GI50: > 100 µM
  TGI: > 100 µM
RXF 393 renal
  GI50: > 100 µM
  TGI: > 100 µM
PC-3 prostate
  GI50: 63.9 µM
  TGI: > 100 µM
U251 CNS
  GI50: > 100 µM
  TGI: > 100 µM
IGROV1 ovarian
  GI50: 36.1 µM
  TGI: > 100 µM
NCI-H460 lung
  GI50: > 100 µM
  TGI: > 100 µM
HS 578T breast
  GI50: 26.9 µM
  TGI: > 100 µM
HOP-62 NSCLC
  GI50: > 100 µM
  TGI: > 100 µM
COLO 205 colon
  GI50: > 100 µM
  TGI: > 100 µM
SW-620 colon
  GI50: > 100 µM
  TGI: > 100 µM
SNB-75 CNS
  GI50: 17.8 µM
  TGI: 68.3 µM
EKVX NSCLC
  GI50: 78.1 µM
  TGI: > 100 µM
SNB-19 CNS
  GI50: > 100 µM
  TGI: > 100 µM
M14 melanoma
  GI50: 71.4 µM
  TGI: > 100 µM
KM12 colon
  GI50: 61.4 µM
  TGI: > 100 µM
